# Data taken from ChEMBL document CHEMBL6096657, “Exploring structure-directed immunogenic cytotoxicity of arginine-rich peptides for cytolysis-induced immunotherapy of cancer” (Bioorg Med Chem, 2024).
# Active and inactive are the calls of the source. The calls are words filed in the database; no cut-off is given here. Where a SMILES comes first, the peptide text is derived from it. Bridges are numbered along the chain shown (N, C = ends).
# How the values were obtained:
# [1] = system: 4T1; assay: Cytotoxicity against mouse 4T1 cells assessed as cell viability by MTT assay; format: functional, cell-based
# [2] = system: 4T1; assay: Induction of apoptosis in mouse 4T1 cells assessed as increase in caspase-3 activity measured at 30 mins; format: functional, cell-based
# [3] = system: 4T1; assay: Induction of necrosis in mouse 4T1 cells cocultured with mouse BMDC cells at 12 uM incubated for 4 hrs by flow cytometry analysis; format: functional, cell-based
# [4] = system: 4T1; assay: Cytotoxicity against mouse 4T1 cells; format: functional, cell-based
# [5] = system: 4T1; assay: Induction of immunogenic cell death in mouse 4T1 cells assessed as increase in CRT translocation to cell surface at 4 to 32 uM; format: functional, cell-based; details: dose 4-32 µM
# [6] = system: 4T1; assay: Induction of apoptosis in mouse 4T1 cells assessed as increase in caspase-3 activity measured at 60 mins; format: functional, cell-based
# [7] = system: 4T1; assay: Antitumor activity against mouse 4T1 cells implanted in mouse assessed as reduction in tumor size; format: functional, cell-based
# [8] = system: 4T1; assay: Cytotoxicity against mouse 4T1 cells assessed as cell death rate at 8 uM by PI staining based confocal microscopic analysis; format: functional
# [9] = Cytotoxicity against mouse BMDM cells; format: toxicity, cell-based; details: BMDM cells (bone marrow-derived macrophages)
# [10] = system: 4T1; assay: Induction of necroptosis in mouse 4T1 cells assessed as increase in cell viability in presence of necrostatin-1 by MTT assay; format: functional, cell-based; details: dose 0.625-30 µM
# [11] = system: 4T1; assay: Induction of immunogenic cell death in mouse 4T1 cells assessed as HMGB1 release at 4 to 32 uM measured after 2 hrs; format: functional, cell-based; details: dose 4-32 µM
# [12] = system: THP-1; assay: Induction of M1 macrophage polarization in human THP-1 cells assessed as increase in IL-1beta level measured after 48 hrs; format: functional, cell-based
# [13] = Cytotoxicity against mouse BMDC cells; format: toxicity, cell-based; details: BMDC cells (bone marrow-derived dendritic cells)
# [14] = system: 4T1; assay: Induction of immunogenic cell death in mouse 4T1 cells assessed as ATP release at 4 to 32 uM measured after 4 hrs; format: functional, cell-based; details: dose 4-32 µM
# [15] = system: 4T1; assay: Cytotoxicity against mouse 4T1 cells assessed as cell death rate at 8 uM measured after 1 hr by MTT assay; format: functional
# [16] = system: 4T1; assay: Cytotoxicity against mouse 4T1 cells at 8 uM measured after 15 mins by MTT assay; format: functional, cell-based
# [17] = system: 4T1; assay: Induction of apoptosis in mouse 4T1 cells assessed as increase in late necrotic cell death incubated for 24 hrs by Annexin V/FITC staining based flow cytometry analysis; format: functional
# [18] = system: 4T1; assay: Induction of morphological changes in mouse 4T1 cells at 8 uM by PI staining based confocal microscopic analysis; format: functional, cell-based
# [19] = system: 4T1; assay: Induction of immunogenic cell death in mouse 4T1 cells assessed as ATP release at 4 to 32 uM measured after 2 hrs; format: functional, cell-based; details: dose 4-32 µM
# [20] = system: 4T1; assay: Induction of ROS generation in mouse 4T1 cells 24 hrs by DCFDA-fluorescence based flow cytometry; format: functional, cell-based
# [21] = system: 4T1; assay: Induction of necrosis in mouse 4T1 cells cocultured with mouse BMDC cells at 15 uM incubated for 4 hrs by flow cytometry analysis; format: functional, cell-based
# [22] = system: 4T1; assay: Cytotoxicity against mouse 4T1 cells assessed as cell death rate at 10 uM by PI staining based confocal microscopic analysis; format: functional
# [23] = system: 4T1; assay: Induction of immunogenic cell death in mouse 4T1 cells assessed as HMGB1 release at 4 to 32 uM measured after 4 hrs; format: functional, cell-based; details: dose 4-32 µM
# [24] = system: 4T1; assay: Induction of apoptosis in mouse 4T1 cells assessed as early apoptotic cell incubated for 24 hrs by Annexin V/FITC staining based flow cytometry analysis; format: functional
# [25] = system: 4T1; assay: Cytotoxicity against mouse 4T1 cells assessed as cell death rate at 4 uM measured after 2 hrs by MTT assay; format: functional
# [26] = system: 4T1; assay: Induction of apoptosis in mouse 4T1 cells assessed as cell death in presence of Ac-DEVD-CHO; format: functional, cell-based
# [27] = system: 4T1; assay: Cytotoxicity against mouse 4T1 cells assessed as cell death rate at 4 uM measured after 15 mins by MTT assay; format: functional, cell-based
# [28] = system: 4T1; assay: Induction of morphological changes in mouse 4T1 cells at 10 uM by PI staining based confocal microscopic analysis; format: functional, cell-based
# [29] = system: 4T1; assay: Cytotoxicity against mouse 4T1 cells assessed as cell death rate at 4 uM measured at 15 mins by MTT assay relative to control; format: functional; details: 0.25 h
# [30] = system: 4T1; assay: Cytotoxicity against mouse 4T1 cells assessed as cell death rate at 4 uM measured at 30 mins by MTT assay relative to control; format: functional; details: 0.5 h
# [31] = system: 4T1; assay: Induction of morphological changes in mouse 4T1 cells at 4 uM by PI staining based confocal microscopic analysis; format: functional, cell-based
# [32] = system: 4T1; assay: Induction of immunogenic cell death in mouse 4T1 cells assessed as increase in CRT translocation to cell surface at 2 to 16 uM; format: functional, cell-based; details: dose 2-16 µM
# [33] = system: 4T1; assay: Induction of immunogenic cell death in mouse 4T1 cells assessed as HMGB1 release at 2 to 16 uM measured after 2 hrs; format: functional, cell-based; details: dose 2-16 µM
# [34] = system: 4T1; assay: Induction of necrosis in mouse 4T1 cells cocultured with mouse BMDC cells at 6 uM incubated for 4 hrs by flow cytometry analysis; format: functional, cell-based
# [35] = system: 4T1; assay: Induction of immunogenic cell death in mouse 4T1 cells assessed as ATP release at 2 to 16 uM measured after 2 hrs; format: functional, cell-based; details: dose 2-16 µM
# [36] = system: 4T1; assay: Induction of immunogenic cell death in mouse 4T1 cells assessed as ATP release at 2 to 16 uM measured after 4 hrs; format: functional, cell-based; details: dose 2-16 µM
smiles,measurement,setting,value
CC(=O)N[C@H]1CSSC[C@@H](C(=O)N[C@@H](CC(C)C)C(=O)N[C@@H](Cc2ccccc2)C(=O)N[C@@H](Cc2c[nH]c3ccccc23)C(=O)N[C@@H](Cc2ccccc2)C(N)=O)NC(=O)[C@H](CCCNC(=N)N)NC(=O)[C@H](CCCNC(=N)N)NC(=O)[C@H](CCCNC(=N)N)NC(=O)[C@H](CCCNC(=N)N)NC(=O)[C@H](CCCNC(=N)N)NC(=O)[C@H](CCCNC(=N)N)NC(=O)[C@H](CCCNC(=N)N)NC(=O)[C@H](CCCNC(=N)N)NC1=O (Ac-CRRRRRRRRCLFWF-NH2; disulfide 1-10),IC50,[1],8.5 µM
CC(=O)N[C@@H](Cc1ccccc1)C(=O)N[C@@H](Cc1c[nH]c2ccccc12)C(=O)N[C@@H](Cc1ccccc1)C(=O)N[C@@H](CC(C)C)C(=O)N[C@H]1CSSC[C@@H](C(N)=O)NC(=O)[C@H](CCCNC(=N)N)NC(=O)[C@H](CCCNC(=N)N)NC(=O)[C@H](CCCNC(=N)N)NC(=O)[C@H](CCCNC(=N)N)NC(=O)[C@H](CCCNC(=N)N)NC(=O)[C@H](CCCNC(=N)N)NC(=O)[C@H](CCCNC(=N)N)NC(=O)[C@H](CCCNC(=N)N)NC1=O (Ac-FWFLCRRRRRRRRC-NH2; disulfide 5-14),IC50,[1],7.5 µM
same,Activity,[2],inactive
same,Activity,[3],Active
same,IC50,[4],7.5 µM
same,Activity,[5],Active
same,Activity,[6],inactive
same,Activity,[7],Active
same,Activity,[8],Active
same,IC50,[9],10.3 µM
same,Activity,[10],Dose-dependent-effect
same,Activity,[11],Active
same,Activity,[12],Active
same,IC50,[13],7.8 µM
same,Activity,[14],Active
same,Activity,[15],50%
same,Activity,[16],Active
same,Activity,[17],Active
same,Activity,[18],Active
same,Activity,[19],Active
same,Activity,[20],Active
CC(=O)N[C@@H](CC(C)C)C(=O)N[C@@H](CC(C)C)C(=O)N[C@@H](CC(C)C)C(=O)N[C@@H](CC(C)C)C(=O)N[C@H]1CSSC[C@@H](C(N)=O)NC(=O)[C@H](CCCNC(=N)N)NC(=O)[C@H](CCCNC(=N)N)NC(=O)[C@H](CCCNC(=N)N)NC(=O)[C@H](CCCNC(=N)N)NC(=O)[C@H](CCCNC(=N)N)NC(=O)[C@H](CCCNC(=N)N)NC(=O)[C@H](CCCNC(=N)N)NC(=O)[C@H](CCCNC(=N)N)NC1=O (Ac-LLLLCRRRRRRRRC-NH2; disulfide 5-14),IC50,[1],9.3 µM
CC(=O)N[C@@H](CCCNC(=N)N)C(=O)N[C@@H](CC(C)C)C(=O)N[C@@H](CC(C)C)C(=O)N[C@@H](CCCNC(=N)N)C(=O)N[C@@H](CC(C)C)C(=O)N[C@@H](CC(C)C)C(=O)N[C@@H](CCCNC(=N)N)C(=O)N[C@@H](CC(C)C)C(=O)N[C@@H](CCCNC(=N)N)C(=O)N[C@@H](CCCNC(=N)N)C(=O)N[C@@H](CC(C)C)C(=O)N[C@@H](CC(C)C)C(=O)N[C@@H](CCCNC(=N)N)C(=O)N[C@@H](CC(C)C)C(N)=O (Ac-RLLRLLRLRRLLRL-NH2),IC50,[1],9.3 µM
same,Activity,[21],Active
same,Activity,[2],Active
same,Activity,[22],Active
same,Activity,[23],Active
same,Activity,[24],Active
same,Activity,[6],Active
same,Activity,[11],Active
same,Activity,[25],50%
same,Activity,[26],Active
same,Activity,[27],Active
same,Activity,[14],Active
same,Activity,[28],inactive
same,Activity,[19],Active
same,Activity,[20],Active
CC(=O)N[C@@H](CCCNC(=N)N)C(=O)N[C@@H](CC(C)C)C(=O)N[C@@H](CC(C)C)C(=O)N[C@@H](CCCNC(=N)N)C(=O)N[C@@H](CC(C)C)C(=O)N[C@@H](CC(C)C)C(=O)N[C@@H](CCCNC(=N)N)C(=O)N[C@@H](CCCNC(=N)N)C(=O)N[C@@H](CC(C)C)C(=O)N[C@@H](CC(C)C)C(=O)N[C@@H](CCCNC(=N)N)C(=O)N[C@@H](CC(C)C)C(=O)N[C@@H](CC(C)C)C(=O)N[C@@H](CCCNC(=N)N)C(N)=O (Ac-RLLRLLRRLLRLLR-NH2),IC50,[1],3.3 µM
same,Activity,[29],30%
same,Activity,[2],inactive
same,Activity,[30],50%
same,Activity,[31],inactive
same,Activity,[6],inactive
same,Activity,[32],Active
same,Activity,[33],Active
same,Activity,[34],Active
same,Activity,[35],Active
same,Activity,[36],Active
same,Activity,[20],inactive
N=C(N)NCCC[C@@H]1NC(=O)[C@H](CCCNC(=N)N)NC(=O)[C@H](CCCNC(=N)N)NC(=O)[C@H](CCCNC(=N)N)NC(=O)[C@H](CCCNC(=N)N)NC(=O)[C@H](CCCNC(=N)N)NC(=O)[C@H](CCCNC(=N)N)NC(=O)[C@H](CCCNC(=N)N)NC(=O)[C@@H](NC(=O)[C@H](Cc2ccccc2)NC(=O)[C@H](Cc2ccccc2)NC(=O)[C@H](Cc2ccccc2)NC(=O)[C@@H](N)Cc2ccccc2)CSSC[C@@H](C(=O)O)NC1=O (H-FFFFCRRRRRRRRC-OH; disulfide 5-14),IC50,[1],8.8 µM
